Literature values in patent publication US20090012008A1, “Pharmaceutical Composition for Photodynamic Therapy and a Method for Treating Oncological Diseases by Using Said Composition” (priority 2005, published 2009).

Legend:
[1] = system: tumor cells of the HeLa S3 line; settings: HeLa S3, in vitro

Compound | cytotoxic activity [1] | effect on viability and proliferation rate (keratinocytes) | effect on viability and proliferation rate (fibroblasts)
fullerocyclopentane | manifest only upon irradiation with light |  | 
c12c3c4c5c1c1c6c7c2c2c8c3c3c9c4c4c%10c5c5c1c1c6c6c%11c7c2c2c7c8c3c3c8c9c4c4c9c%10c5c5c1c1c6c6c%11c2c2c7c3c3c8c4c4c9c5c1c1c6c2c3c41 [fullerene C60] |  | no effect | no effect
